Experiment [1] concerns the target T1, Tissue alpha-L-fucosidase (Bos taurus, UniProt Q2KIM0).
T1 sequence (Q2KIM0 whole entry): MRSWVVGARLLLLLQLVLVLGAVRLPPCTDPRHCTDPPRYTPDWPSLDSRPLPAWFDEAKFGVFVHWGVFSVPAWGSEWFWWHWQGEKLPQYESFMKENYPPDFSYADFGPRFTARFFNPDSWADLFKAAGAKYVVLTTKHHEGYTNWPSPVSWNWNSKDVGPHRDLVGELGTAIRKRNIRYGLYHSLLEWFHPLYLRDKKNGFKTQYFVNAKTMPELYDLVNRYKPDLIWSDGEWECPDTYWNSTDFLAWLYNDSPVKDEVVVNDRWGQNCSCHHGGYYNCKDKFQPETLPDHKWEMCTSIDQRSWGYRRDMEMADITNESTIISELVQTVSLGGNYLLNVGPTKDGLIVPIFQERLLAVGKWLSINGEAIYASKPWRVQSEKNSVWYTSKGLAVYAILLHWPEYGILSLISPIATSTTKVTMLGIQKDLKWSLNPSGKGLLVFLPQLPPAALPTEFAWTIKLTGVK
The experiment can be described thus: Inhibition of bovine kidney alpha-L-fucosidase.

For the next experiment, the system named is Helix pomatia. In words: Inhibition of snail beta-mannosidase at 1000 uM.
The target of experiment [2] is T2, Tissue alpha-L-fucosidase (Bos taurus) (UniProt Q2KIM0).
T2 sequence (whole entry): T1 sequence (Q2KIM0 whole entry)
In words: Inhibition of bovine kidney alpha-L-fucosidase at 1000 uM.

For the next experiment, the system named is Prunus dulcis. In words: Inhibition of almond beta-glucosidase at 1000 uM.
The subject of the next experiment is Canavalia ensiformis. The experiment can be described thus: Inhibition of jack beans alpha-mannosidase at 1000 uM.
Experiment [3] relates to Aspergillus niger. The experiment can be described thus: Inhibition of Aspergillus niger amyloglucosidase at 1000 uM.
For experiment [4], the target named is Oligo-1,6-glucosidase IMA1 (Saccharomyces cerevisiae S288c) (UniProt P53051). In words: Inhibition of yeast alpha-glucosidase at 1000 uM.
Sequence of Oligo-1,6-glucosidase IMA1 (Saccharomyces cerevisiae S288c) (P53051 whole entry): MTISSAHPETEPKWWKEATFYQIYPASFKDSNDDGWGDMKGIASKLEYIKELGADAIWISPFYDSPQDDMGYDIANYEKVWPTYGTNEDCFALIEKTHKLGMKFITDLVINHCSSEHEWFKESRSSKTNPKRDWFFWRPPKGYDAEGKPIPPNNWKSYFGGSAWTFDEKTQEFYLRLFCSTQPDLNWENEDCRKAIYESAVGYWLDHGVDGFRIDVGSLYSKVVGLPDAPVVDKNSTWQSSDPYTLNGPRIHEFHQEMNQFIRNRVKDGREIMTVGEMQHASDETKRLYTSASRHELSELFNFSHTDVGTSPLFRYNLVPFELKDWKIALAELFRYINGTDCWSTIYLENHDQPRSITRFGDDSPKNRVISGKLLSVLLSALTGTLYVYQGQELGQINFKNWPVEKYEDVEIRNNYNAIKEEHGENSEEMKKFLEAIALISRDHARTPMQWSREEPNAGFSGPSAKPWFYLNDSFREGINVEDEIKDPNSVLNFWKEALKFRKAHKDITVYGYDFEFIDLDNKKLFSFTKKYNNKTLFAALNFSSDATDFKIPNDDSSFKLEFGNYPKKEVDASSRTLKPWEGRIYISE
Another experiment deals with Penicillium decumbens. The experiment can be described thus: Inhibition of Penicillium decumbens alpha-L-rhamnosidase at 1000 uM.
The target of experiment [5] is T3, Glucosylceramidase (Bos taurus) (UniProt Q2KHZ8).
T3 sequence (whole entry): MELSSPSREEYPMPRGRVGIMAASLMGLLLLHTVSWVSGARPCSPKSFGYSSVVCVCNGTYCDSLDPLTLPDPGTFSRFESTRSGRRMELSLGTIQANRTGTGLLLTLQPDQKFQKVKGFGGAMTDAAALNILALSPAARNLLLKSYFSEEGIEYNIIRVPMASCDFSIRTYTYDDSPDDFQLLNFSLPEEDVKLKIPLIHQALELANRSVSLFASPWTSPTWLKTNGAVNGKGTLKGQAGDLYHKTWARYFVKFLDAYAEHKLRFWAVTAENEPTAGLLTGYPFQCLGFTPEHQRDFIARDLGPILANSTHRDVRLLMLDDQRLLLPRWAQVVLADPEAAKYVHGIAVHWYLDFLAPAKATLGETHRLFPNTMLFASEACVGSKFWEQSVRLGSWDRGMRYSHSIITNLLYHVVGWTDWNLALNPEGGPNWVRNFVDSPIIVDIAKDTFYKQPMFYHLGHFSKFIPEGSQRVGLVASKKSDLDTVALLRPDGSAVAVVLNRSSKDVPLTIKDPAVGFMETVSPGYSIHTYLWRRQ
The experiment can be described thus: Inhibition of bovine liver beta-glucosidase at 1000 uM.

Experiment [6] is described as follows: Inhibition of rice alpha-glucosidase. Further details: species or system Oryza sativa.
In experiment [7] the target is Alpha-galactosidase (Coffea arabica) (UniProt Q42656). In words: Inhibition of coffee bean alpha-galactosidase at 1000 uM.
Sequence of Alpha-galactosidase (Coffea arabica) (Q42656 16-378 limits assumed): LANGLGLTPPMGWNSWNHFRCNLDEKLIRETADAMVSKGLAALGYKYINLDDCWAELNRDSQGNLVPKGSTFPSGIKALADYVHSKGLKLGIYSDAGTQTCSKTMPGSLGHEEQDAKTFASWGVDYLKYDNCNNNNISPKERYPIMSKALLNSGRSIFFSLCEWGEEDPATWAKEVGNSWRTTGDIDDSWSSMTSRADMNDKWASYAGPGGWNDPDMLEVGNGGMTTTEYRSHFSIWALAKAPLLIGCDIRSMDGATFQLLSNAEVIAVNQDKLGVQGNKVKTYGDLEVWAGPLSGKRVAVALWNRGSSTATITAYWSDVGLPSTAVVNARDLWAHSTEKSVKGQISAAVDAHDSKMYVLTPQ
The target in experiment [8] is T4, Uncharacterized protein (Sus scrofa) (UniProt I3LIR5).
T4 sequence (whole entry): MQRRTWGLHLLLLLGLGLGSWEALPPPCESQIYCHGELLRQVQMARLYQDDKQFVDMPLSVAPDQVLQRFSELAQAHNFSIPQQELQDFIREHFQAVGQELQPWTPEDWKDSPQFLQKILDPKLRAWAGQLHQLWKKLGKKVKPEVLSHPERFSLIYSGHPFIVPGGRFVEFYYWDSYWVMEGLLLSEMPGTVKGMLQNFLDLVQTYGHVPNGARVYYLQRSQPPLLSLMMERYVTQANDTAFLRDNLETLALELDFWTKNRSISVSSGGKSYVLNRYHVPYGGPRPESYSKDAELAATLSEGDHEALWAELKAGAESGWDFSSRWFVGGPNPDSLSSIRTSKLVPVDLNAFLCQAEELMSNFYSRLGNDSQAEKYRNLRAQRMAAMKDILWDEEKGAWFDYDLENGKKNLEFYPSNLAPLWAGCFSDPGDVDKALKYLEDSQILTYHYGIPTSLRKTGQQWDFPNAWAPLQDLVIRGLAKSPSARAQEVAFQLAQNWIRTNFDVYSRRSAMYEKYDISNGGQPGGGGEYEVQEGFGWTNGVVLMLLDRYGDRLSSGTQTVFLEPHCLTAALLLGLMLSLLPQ
The experiment can be described thus: Inhibition of pig kidney alpha, alpha trehalase at 1000 uM.

Experiment [9] has as its system Aspergillus niger. The experiment can be described thus: Inhibition of Aspergillus niger beta-glucosidase at 1000 uM.
The species entered for a further experiment is Rattus norvegicus. The experiment can be described thus: Inhibition of rat intestinal maltase alpha-glucosidase at 1000 uM.
The next experiment addresses T5, Beta-galactosidase (Bos taurus, UniProt Q58D55).
T5 sequence (Q58D55 whole entry): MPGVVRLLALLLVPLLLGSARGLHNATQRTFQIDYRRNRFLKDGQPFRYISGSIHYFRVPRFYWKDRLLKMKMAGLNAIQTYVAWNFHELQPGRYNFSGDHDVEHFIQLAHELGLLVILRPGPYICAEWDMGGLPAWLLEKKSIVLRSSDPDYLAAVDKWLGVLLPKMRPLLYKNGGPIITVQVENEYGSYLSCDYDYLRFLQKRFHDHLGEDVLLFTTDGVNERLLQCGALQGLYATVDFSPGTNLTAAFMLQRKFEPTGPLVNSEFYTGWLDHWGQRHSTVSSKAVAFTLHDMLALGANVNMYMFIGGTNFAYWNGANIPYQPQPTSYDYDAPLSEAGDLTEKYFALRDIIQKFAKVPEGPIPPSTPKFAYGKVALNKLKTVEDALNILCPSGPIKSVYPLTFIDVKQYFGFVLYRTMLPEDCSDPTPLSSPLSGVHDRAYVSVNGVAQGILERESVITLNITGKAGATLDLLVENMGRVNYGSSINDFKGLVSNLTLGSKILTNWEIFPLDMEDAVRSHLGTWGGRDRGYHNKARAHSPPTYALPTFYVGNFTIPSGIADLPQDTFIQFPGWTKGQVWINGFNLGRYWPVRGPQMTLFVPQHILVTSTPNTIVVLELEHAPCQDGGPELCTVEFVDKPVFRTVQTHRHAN
In words: Inhibition of bovine liver beta-galactosidase.

`O[C@H]1[C@H](O)[C@@H](O)CNC[C@H]1O` showed a Ki in [1] of 4.6 µM.

Regarding `CCC[C@@H]1NC[C@@H](O)[C@@H](O)[C@H](O)[C@H]1O`, the inhibition in the experiment with Helix pomatia was found to be 3.6%; in [2], 0%; with Prunus dulcis, 0%; in the experiment on Canavalia ensiformis, 1.6%; with Aspergillus niger [3] it was 0%; in experiment [4], 0%. Besides, the inhibition in the experiment on Penicillium decumbens was found to be 14.8%; in experiment [5], 6%; in [7], 46%; in experiment [8], 0%; with Aspergillus niger [9] it was 9.1%; in the experiment listed under Rattus norvegicus, 0%. Besides, the IC50 in [6] was 839 µM; against Beta-galactosidase it was 541 µM.

One may read the Ki as a measure of affinity in units of concentration, obtained from inhibition or displacement. For orientation: inhibition means the share of the control response that was lost under treatment. Read a high inhibition as strong suppression. Usually IC50 stands for the midpoint of a concentration-inhibition curve.

The record behind these values is ChEMBL document CHEMBL2406948, “Skeletal rearrangement of seven-membered iminosugars: synthesis of (-)-adenophorine, (-)-1-epi-adenophorine and derivatives and evaluation as glycosidase inhibitors” (Bioorg Med Chem, 2013).
